The record followed here is patent US8680139B2 (Progenra, priority 2009, dated 2014).

One data set concerns the target T1, USP7 (Homo sapiens, UniProt Q93009).
T1 construct: full length human USP7 protein; made in house
The experiment in a line: USP7, Ub-PLA2 assay. The data set is classed as biochemical. As to conditions: for EC50: Ub-PLA2 / NBD C6-HPC fluorescence, 30 minute preincubation, read-out: EC50 for inhibition of USP7; for USP7 inhibition, result in words: USP7, Ub-PLA2 assay. Put shortly: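 Compounds tested against USP7 with DMSO vehicle control and NEM-treated wells as background. Fluorescence (RFU) read-out; % inhibition normalized per plate to mean DMSO and NEM controls.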

A short description of data set [1]: HCT-116 Cellular Cytotoxicity Assay. As to conditions: human, HCT-116 cells, pH 7.2.
Description: The purpose of this assay is to determine if any of the synthesized compounds are cytotoxic against HCT-116 cells, as measured by resazurin metabolism. Resazurin is metabolized only by living cells from a non-fluorescent molecule into Resorufin, a highly red fluorescent dye. […] The cells were cultured in an incubator at 37° C. in 5% CO2 and 95% humidified air. […] The final concentration DMSO was 0.5% (v/v) in all samples. The plates were returned to the incubator for 72 hours. Following 72 hours of test compound exposure, 10 μL of 0.2 mg/mL Resazurin (Sigma) in phosphate buffered saline was added to each well and the plate was returned to the incubator for 3-6 hours. Since living cells metabolize Resazurin, the fluorescence of the reduction product of Resazurin was measured using a microplate fluorometer with λex=531 nm and λem=590 nm filters. Resazurin dye in medium without cells was used to determine the background, which was subtracted from the data for all experimental wells.

T1 sequence (Q93009 whole entry): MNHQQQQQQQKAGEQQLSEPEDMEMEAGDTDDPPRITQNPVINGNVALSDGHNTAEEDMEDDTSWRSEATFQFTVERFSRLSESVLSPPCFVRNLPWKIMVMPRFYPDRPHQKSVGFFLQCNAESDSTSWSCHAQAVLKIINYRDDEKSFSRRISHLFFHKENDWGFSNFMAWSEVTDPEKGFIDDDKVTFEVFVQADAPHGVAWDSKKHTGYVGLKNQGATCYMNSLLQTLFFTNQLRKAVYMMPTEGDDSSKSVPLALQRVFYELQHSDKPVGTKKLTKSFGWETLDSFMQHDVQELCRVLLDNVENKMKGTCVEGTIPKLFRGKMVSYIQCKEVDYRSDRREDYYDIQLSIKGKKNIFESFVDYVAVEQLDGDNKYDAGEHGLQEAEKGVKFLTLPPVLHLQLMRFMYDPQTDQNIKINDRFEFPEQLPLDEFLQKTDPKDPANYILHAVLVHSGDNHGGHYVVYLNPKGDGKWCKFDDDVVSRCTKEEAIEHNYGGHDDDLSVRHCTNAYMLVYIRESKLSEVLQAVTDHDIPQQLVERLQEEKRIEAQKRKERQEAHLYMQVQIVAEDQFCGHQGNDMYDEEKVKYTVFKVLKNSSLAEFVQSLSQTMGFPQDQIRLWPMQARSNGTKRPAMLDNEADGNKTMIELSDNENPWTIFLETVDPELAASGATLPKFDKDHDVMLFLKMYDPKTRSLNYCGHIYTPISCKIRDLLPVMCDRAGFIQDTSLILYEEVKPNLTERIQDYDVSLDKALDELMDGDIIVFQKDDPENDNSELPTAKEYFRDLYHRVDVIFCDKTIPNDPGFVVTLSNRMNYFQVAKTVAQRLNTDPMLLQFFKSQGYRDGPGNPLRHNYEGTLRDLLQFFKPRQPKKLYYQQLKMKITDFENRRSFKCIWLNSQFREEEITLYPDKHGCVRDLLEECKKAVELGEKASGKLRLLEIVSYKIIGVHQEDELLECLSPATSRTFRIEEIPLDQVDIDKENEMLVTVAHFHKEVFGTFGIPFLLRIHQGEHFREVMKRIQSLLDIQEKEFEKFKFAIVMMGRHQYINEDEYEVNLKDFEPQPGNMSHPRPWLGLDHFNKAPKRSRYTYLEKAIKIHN

Regarding `NS(=O)(=O)c1ccc(NC(=O)c2cc([N+](=O)[O-])c(Sc3c(Cl)cncc3Cl)s2)cc1` [Example 160, 5-((3,5-dichloropyridin-4-yl)thio)-4-nitro-N-(4-sulfamoylphenyl)thiophene-2-carboxamide], the half-maximal effective concentration (EC50) at USP7 is at most 1 µM. The concentration for a half-maximal effect (EC50) at 72 h in data set [1] is 6.17 µM. Regarding `CN(C)CCNc1ccc(NC(=O)c2cc([N+](=O)[O-])c(Sc3c(Cl)cncc3Cl)s2)cn1` [Example 238, 5-((3,5-dichloropyridin-4-yl)thio)-N-(6-((2-(dimethylamino)ethyl)amino)pyridin-3-yl)-4-nitrothiophene-2-carboxamide], the concentration for a half-maximal effect (EC50) on USP7 is at most 1 µM. Further, the EC50 at 72 h in data set [1] came out at 3.96 µM. `CS(=O)(=O)c1ccc(NC(=O)c2cc([N+](=O)[O-])c(Sc3c(Cl)cncc3Cl)s2)cc1` [Example 129, 5-((3,5-dichloropyridin-4-yl)thio)-N-(4-(methylsulfonyl)phenyl)-4-nitrothiophene-2-carboxamide]: at USP7, the “USP7 inhibition, result in words” value is given as “Particularly good results” and the EC50 was at most 1 µM. Also, in data set [1], a half-maximal effect (EC50 at 72 h) was put at 5.89 µM. As to `Cc1cc(NC(=O)c2cc([N+](=O)[O-])c(Sc3c(Cl)cncc3Cl)s2)n(CCN(C)C)n1` [Example 182, 5-((3,5-dichloropyridin-4-yl)thio)-N-(1-(2-(dimethylamino)ethyl)-3-methyl-1H-pyrazol-5-yl)-4-nitrothiophene-2-carboxamide], the concentration giving a half-maximal response (EC50) at USP7 was at most 1 µM. Besides, the EC50 at 72 h in data set [1] is 14.3 µM.

For `CN(C)CCC(O)c1cc([N+](=O)[O-])c(Sc2ccc(Cl)cc2Cl)s1` (stereo not shown) [Example 25, 1-[5-(2,4-dichlorophenyl)sulfanyl-4-nitro-2-thienyl]-3-dimethylamino-propan-1-ol], on USP7, the 50% effective concentration (EC50) lay in the range of 1 to 10 µM. The compound also came in with an EC50 at 72 h in data set [1] of 15.2 µM. For the compound `CN(C)CCC(=O)c1cc([N+](=O)[O-])c(Sc2ccc(Cl)cc2Cl)s1` [Example 24, 1-[5-(2,4-dichlorophenyl)sulfanyl-4-nitro-2-thienyl]-3-dimethylamino-propan-1-one], the EC50 on USP7 fell in the range of 1 to 10 µM. A half-maximal effect in data set [1] (EC50 at 72 h) was put at 27.3 µM. As for `CC(=O)c1cc(C#N)c(Sc2ccc(Cl)cc2Cl)s1` [Example 21, 1-[4-cyano-5-(2,4-dichlorophenyl)sulfanyl-2-thienyl]ethanone], the 50% effective concentration (EC50) at USP7 was over 10 µM. The same compound gave an EC50 at 72 h in data set [1] of 32.5 µM. Take `CC(=O)c1cc([N+](=O)[O-])c(Sc2ccc(Cl)cc2Cl)s1` [Example 2, 1-[5-(2,4-Dichlorophenylsulfanyl)-4-nitro-2-thienyl]ethanone]: the EC50 on USP7 lay in the range of 1 to 10 µM. Also, the concentration for a half-maximal effect (EC50) at 72 h in data set [1] turned out to be 16.1 µM. In the case of `O=C(Nc1cc(C2CC2)n[nH]1)c1cc([N+](=O)[O-])c(Sc2c(Cl)cncc2Cl)s1` [Example 123, N-(3-cyclopropyl-1H-pyrazol-5-yl)-5-((3,5-dichloropyridin-4-yl)thio)-4-nitrothiophene-2-carboxamide], at USP7, the “USP7 inhibition, result in words” value is recorded as “Particularly good results” and the EC50 was at most 1 µM. Besides, a half-maximal effect in data set [1] (EC50 at 72 h) was put at 11 µM. `CN(C)CCOc1ccc(NC(=O)c2cc([N+](=O)[O-])c(Sc3c(Cl)cncc3Cl)s2)cc1` [Example 192, 5-((3,5-dichloropyridin-4-yl)thio)-N-(4-(2-(dimethylamino)ethoxy)phenyl)-4-nitrothiophene-2-carboxamide]: at USP7, the concentration giving a half-maximal response (EC50) is at most 1 µM. In addition, in data set [1], the EC50 at 72 h amounted to 4.9 µM. In the case of `Cc1cnc(CNC(=O)c2cc([N+](=O)[O-])c(Sc3c(Cl)cncc3Cl)s2)cn1` [Example 103, 5-((3,5-dichloropyridin-4-yl)thio)-N-((5-methylpyrazin-2-yl)methyl)-4-nitrothiophene-2-carboxamide], at USP7, the EC50 is at most 1 µM. The compound also registered a half-maximal effective concentration (EC50) at 72 h in data set [1] of 7.18 µM. As to `O=C(Nc1cccc2cnccc12)c1cc([N+](=O)[O-])c(Sc2c(Cl)cncc2Cl)s1` [Example 179, 5-((3,5-dichloropyridin-4-yl)thio)-N-(isoquinolin-5-yl)-4-nitrothiophene-2-carboxamide], the EC50 at USP7 was at most 1 µM. In data set [1], this compound returned a 50% effective concentration (EC50) at 72 h of 4.23 µM.

Consider `CN1C(C)(C)CC(NC(=O)c2cc([N+](=O)[O-])c(Sc3c(Cl)cncc3Cl)s2)CC1(C)C` [Example 188, 5-((3,5-dichloropyridin-4-yl)thio)-4-nitro-N-(1,2,2,6,6-pentamethylpiperidin-4-yl)thiophene-2-carboxamide], for which, at USP7, the EC50 is at most 1 µM. In addition, in data set [1], the 50% effective concentration (EC50) at 72 h stood at 7.9 µM. Consider `COc1ccc(NC(=O)c2cc([N+](=O)[O-])c(Sc3c(Cl)cncc3Cl)s2)cc1` [Example 155, 5-((3,5-dichloropyridin-4-yl)thio)-N-(4-methoxyphenyl)-4-nitrothiophene-2-carboxamide], for which, at USP7, the “USP7 inhibition, result in words” value is “Particularly good results” and the EC50 is at most 1 µM. In addition, the EC50 at 72 h in data set [1] was 5.49 µM. Consider `O=C(Nc1ccc(N2CCOCC2)cc1)c1cc([N+](=O)[O-])c(Sc2c(Cl)cncc2Cl)s1` [Example 157, 5-((3,5-dichloropyridin-4-yl)thio)-N-(4-morpholinophenyl)-4-nitrothiophene-2-carboxamide], for which, at USP7, the EC50 was at most 1 µM. The compound also returned a half-maximal effective concentration (EC50) at 72 h in data set [1] of 27.3 µM. Regarding `CN(C)CCCOc1ccc(NC(=O)c2cc([N+](=O)[O-])c(Sc3c(Cl)cncc3Cl)s2)cc1` [Example 193, 5-[(3,5-dichloro-4-pyridyl)sulfanyl]-N-[4-(3-dimethylaminopropoxy)phenyl]-4-nitro-thiophene-2-carboxamide], at USP7, the “USP7 inhibition, result in words” value was “Particularly good results” and the half-maximal effective concentration (EC50) is at most 1 µM. The concentration giving a half-maximal response (EC50) at 72 h in data set [1] was 3.37 µM. On to `CN1CCC(NC(=O)c2cc(C#N)c(Sc3c(Cl)cncc3Cl)s2)CC1` [Example 203, 4-cyano-5-((3,5-dichloropyridin-4-yl)thio)-N-(1-methylpiperidin-4-yl)thiophene-2-carboxamide], for which the EC50 on USP7 lay in the range of 1 to 10 µM. Besides, in data set [1], it took 10.4 µM to reach a half-maximal effect (EC50 at 72 h). Consider `O=C(Nc1ccccc1)c1cc([N+](=O)[O-])c(Sc2c(Cl)cncc2Cl)s1` [Example 116, 5-((3,5-dichloropyridin-4-yl)thio)-4-nitro-N-phenylthiophene-2-carboxamide], for which, at USP7, the EC50 was at most 1 µM. Regarding `CC(O)c1cc([N+](=O)[O-])c(Sc2ccc(Cl)cc2Cl)s1` (stereo not shown) [Example 26, 1-[5-(2,4-dichlorophenyl)sulfanyl-4-nitro-2-thienyl]ethanol], on USP7, the EC50 is over 10 µM.

As to `CN1CCN(C(=O)c2cc([N+](=O)[O-])c(Sc3c(Cl)cncc3Cl)s2)CC1` [Example 66, (5-((3,5-dichloropyridin-4-yl)thio)-4-nitrothiophen-2-yl)(4-methylpiperazin-1-yl)methanone], at USP7, the EC50 fell in the range of 1 to 10 µM. Consider `COc1cccc(CNC(=O)c2cc([N+](=O)[O-])c(Sc3c(Cl)cncc3Cl)s2)c1OC` [Example 97, 5-((3,5-dichloropyridin-4-yl)thio)-N-(2,3-dimethoxybenzyl)-4-nitrothiophene-2-carboxamide], for which the EC50 on USP7 was at most 1 µM.

`COc1ccc(Cl)cc1NC(=O)c1cc([N+](=O)[O-])c(Sc2c(Cl)cncc2Cl)s1` [Example 130, N-(5-chloro-2-methoxyphenyl)-5-((3,5-dichloropyridin-4-yl)thio)-4-nitrothiophene-2-carboxamide]: the EC50 on USP7 was at most 1 µM. Consider `CCN1C[C@H](NC(=O)c2cc([N+](=O)[O-])c(Sc3c(Cl)cncc3Cl)s2)[C@@H](OC)C1` [Example 92, 5-((3,5-dichloropyridin-4-yl)thio)-N-((3S,4S)-1-ethyl-4-methoxypyrrolidin-3-yl)-4-nitrothiophene-2-carboxamide], for which the concentration giving a half-maximal response (EC50) at USP7 lay in the range of 1 to 10 µM. As to `COCCCNC(=O)CNC(=O)c1cc([N+](=O)[O-])c(Sc2c(Cl)cncc2Cl)s1` [Example 213, 5-((3,5-dichloropyridin-4-yl)thio)-N-(2-((3-methoxypropyl)amino)-2-oxoethyl)-4-nitrothiophene-2-carboxamide], the 50% effective concentration (EC50) at USP7 was 1 to 10 µM. For the compound `O=C(NCc1ccc2c(c1)OCCO2)c1cc([N+](=O)[O-])c(Sc2c(Cl)cncc2Cl)s1` [Example 147, 5-((3,5-dichloropyridin-4-yl)thio)-N-((2,3-dihydrobenzo[b][1,4]dioxin-6-yl)methyl)-4-nitrothiophene-2-carboxamide], the concentration giving a half-maximal response (EC50) on USP7 was at most 1 µM. Take `CC(=O)c1cc([N+](=O)[O-])c(Sc2ccccc2Cl)s1` [Example 1, 1-[5-(2-Chlorophenylsulfanyl)-4-nitro-2-thienyl]ethanone]: the half-maximal effective concentration (EC50) on USP7 is over 10 µM. Take `O=C(NCCc1ccccc1)c1cc([N+](=O)[O-])c(Sc2c(Cl)cncc2Cl)s1` [Example 96, 5-((3,5-dichloropyridin-4-yl)thio)-4-nitro-N-phenethylthiophene-2-carboxamide]: the 50% effective concentration (EC50) on USP7 is at most 1 µM. The same measure, in the same setting: the result for `COc1cc(NC(=O)c2cc([N+](=O)[O-])c(Sc3c(Cl)cncc3Cl)s2)cc(OC)c1OC` [Example 169, 5-((3,5-dichloropyridin-4-yl)thio)-4-nitro-N-(3,4,5-trimethoxyphenyl)thiophene-2-carboxamide] reads at most 1 µM; that for `CS(=O)(=O)c1ccc(NC(=O)c2cc(C#N)c(Sc3c(Cl)cncc3Cl)s2)cc1` [Example 208, 4-cyano-5-((3,5-dichloropyridin-4-yl)thio)-N-(4-(methylsulfonyl)phenyl)thiophene-2-carboxamide], at most 1 µM. Take `O=C(NCC(O)CN1CCCCC1)c1cc([N+](=O)[O-])c(Sc2c(Cl)cncc2Cl)s1` (stereo not shown) [Example 241, 5-((3,5-dichloropyridin-4-yl)thio)-N-(2-hydroxy-3-(piperidin-1-yl)propyl)-4-nitrothiophene-2-carboxamide]: the half-maximal effective concentration (EC50) at USP7 lay in the range of 1 to 10 µM. On to `COc1ccccc1CNC(=O)c1cc([N+](=O)[O-])c(Sc2c(Cl)cncc2Cl)s1` [Example 51, 5-((3,5-dichloropyridin-4-yl)thio)-N-(2-methoxybenzyl)-4-nitrothiophene-2-carboxamide], for which the EC50 at USP7 fell in the range of 1 to 10 µM.

As a reminder, the EC50 is the concentration needed to bring the measured effect to its halfway point.
